According to patent US20250270202A1, “SUBSTITUTED 4-AMINOISOINDOLINE COMPOUND, PREPARATION METHOD THEREFOR, PHARMACEUTICAL COMPOSITION THEREOF, AND USE THEREOF” (SHANGHAI INSTITUTE OF MATERIA MEDICA, CHINESE ACADEMY OF …, priority 2022, published 2025):
Where two headings read alike, the source gives them in different places.

What was measured:
Type in all cases: cell-based
MV-4-11 cells = test: Inhibition of MV-4-11 cell proliferation (MTS, 7 days); settings: Homo sapiens
Outline: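 Measured at 2,000 cells per well in IMDM with 10% FBS, five-fold compound dilutions, 0.2% DMSO final, 7 days at 37° C, 5% CO2. MTS added for 3-4 hours; signal as OD490-OD690. IC50 from three repeated experiments, each in triplicate.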

MM.1S cells = test: Effect of the compound on MM.1S cell proliferation (MTS, 7 days); settings: Homo sapiens, MM1.S
Outline: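 MM.1S cells (20,000/well in RPMI 1640 with 10% FBS) were exposed to a 5-step compound dilution series (0.2% DMSO final) for 7 days at 37 °C, 5% CO2. MTS readout used OD490 minus OD690 after 3–4 h, and IC50 was fitted from three independent repeats.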

Mino cells = test: Inhibition of cell proliferation of Mino cells (MTS, 3 days); settings: Homo sapiens, MINO
Outline: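 Mino cells in RPMI-1640 with 15% FBS were seeded at 8000 cells/well and treated with 5-fold compound dilutions (final DMSO 0.2%) for 3 days at 37° C. Viability was measured by MTS as OD490−OD690 after 3-4 h. IC50 was fitted from inhibition relative to DMSO and blank, in three repeat experiments.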

[1] = MV4-11, 168 h, 7 days, MTS, Table 3, read-out: MV-4-11 Cells Inhibition Activity IC50
[2] = 168 h, 7 days, MTS, Table 1, read-out: MM.1S Cells Inhibition Activity IC50
[3] = 72 h, 3 days, MTS, Table 2, read-out: Mino Cells Inhibition Activity IC50
[4] = MV4-11, positive compounds, read-out: IC50 in MV-4-11 acute leukemia cells
[5] = MV4-11, Table 4, values in nM, read-out: Inhibitory Activity of Compounds on Cell Proliferation MV-4-11 IC50
[6] = Table 4, read-out: Inhibitory Activity of Compounds on Cell Proliferation MM.1S IC50
[7] = Table 4, read-out: Inhibitory Activity of Compounds on Cell Proliferation Mino IC50

SMILES | IC50 (MV-4-11 cells; [1]) [nM] | IC50 (MM.1S cells; [2]) [µM] | IC50 (Mino cells; [3]) [µM] | IC50 (MV-4-11 cells; [4]) [nM] | IC50 (MV-4-11 cells; [5]) [nM] | IC50 (MM.1S cells; [6]) [µM] | IC50 (Mino cells; [7]) [µM]
O=C1CCC(N2C(=O)c3cccc(NCc4cnc(-c5ccccc5Cl)s4)c3C2=O)C(=O)N1 (centres unmarked) [Example 69, 4-(((2-(2-Chlorophenyl)thiazol-5-yl)methyl)amino)-2-(2,6-Dioxopiperidin-3-yl)isoindolin-1,3-dione] | < 1000 | 0.03 to 0.15 | > 0.12 |  |  |  | 
O=C1CCC(N2C(=O)c3cccc(NCc4cnc(-c5cccc(-c6ccccc6)c5)o4)c3C2=O)C(=O)N1 (centres unmarked) [Example 18] | < 1000 | < 0.015 | < 0.06 |  |  |  | 
O=C1CCC(N2C(=O)c3cccc(NCc4cnc(CN5CCC(N6CCOCC6)CC5)o4)c3C2=O)C(=O)N1 (centres unmarked) [Example 87] | > 20000 | 0.03 to 0.15 | > 0.12 |  |  |  | 
O=C1CCC(N2C(=O)c3cccc(NCc4cnc(C5CCN(C(=O)c6ccc(F)cc6)CC5)o4)c3C2=O)C(=O)N1 (centres unmarked) [Example 5] | 1000 to 20000 | 0.015 to 0.03 | > 0.12 |  |  |  | 
O=C1CCC(N2C(=O)c3cccc(NCc4cnc(-c5ccccc5C(F)(F)F)o4)c3C2=O)C(=O)N1 (centres unmarked) [Example 59] | 1000 to 20000 | 0.03 to 0.15 | > 0.12 |  |  |  | 
CN1CCN(Cc2ncc(CNc3cccc4c3C(=O)N(C3CCC(=O)NC3=O)C4=O)o2)CC1 (centres unmarked) [Example 91] | 1000 to 20000 | > 0.15 | > 0.12 |  |  |  | 
O=C1CCC(N2Cc3c(OCc4ccc(CN5CCOCC5)cc4)cccc3C2=O)C(=O)N1 (centres unmarked) [CC-220, reference compound] | > 20000 | < 0.015 | 0.06 to 0.12 | > 20000 |  |  | 
COc1cccc(-c2ncc(CNc3cccc4c3C(=O)N(C3CCC(=O)NC3=O)C4=O)o2)c1 (centres unmarked) [Example 17] | 1000 to 20000 | < 0.015 | 0.06 to 0.12 |  |  |  | 
COCCOc1ccc(-c2ncc(CNc3cccc4c3C(=O)N(C3CCC(=O)NC3=O)C4=O)o2)cc1 (centres unmarked) [Example 52] | < 1000 | < 0.015 | < 0.06 |  |  |  | 
O=C1CCC(N2C(=O)c3cccc(NCc4cnc(-c5cccc(OC6COC6)c5)o4)c3C2=O)C(=O)N1 (centres unmarked) [Example 100] | 1000 to 20000 | < 0.015 | > 0.12 |  |  |  | 
O=C1CCC(N2C(=O)c3cccc(NCc4cnc(C5CCN(Cc6ccc(OC(F)(F)F)cc6)CC5)o4)c3C2=O)C(=O)N1 (centres unmarked) [Example 14] | < 1000 | 0.015 to 0.03 | 0.06 to 0.12 |  |  |  | 
CC(C)(C)C(=O)OCN1C(=O)CCC(N2C(=O)c3cccc(NCc4cnc(-c5ccc(C(F)(F)F)cc5)s4)c3C2=O)C1=O (centres unmarked) [Example 39] | < 1000 | 0.015 to 0.03 | 0.06 to 0.12 |  |  |  | 
C[C@@H]1CN(Cc2ncc(CNc3cccc4c3C(=O)N(C3CCC(=O)NC3=O)C4=O)o2)C[C@H](C)O1 (stereo partly drawn) [Example 79, 4-(((2-(((2R,6S)-2,6-Dimethylmorpholino)methyl)oxazol-5-yl)methyl)amino)-2-(2,6-Dioxopiperidin-3-yl)isoindoline-1,3-dione] | < 1000 | > 0.15 | > 0.12 |  |  |  | 
O=C1CCC(N2C(=O)c3cccc(NCc4cnc(C5CCN(Cc6ccc(F)cc6)CC5)o4)c3C2=O)C(=O)N1 (centres unmarked) [Example 12] | < 1000 | 0.03 to 0.15 | > 0.12 |  |  |  | 
O=C1CCC(N2Cc3c(CCc4cnc(-c5ccc(OC(F)(F)F)cc5)o4)cccc3C2=O)C(=O)N1 (centres unmarked) [Prior Art Disclosed Compound-2, reference compound] |  |  |  |  | > 20000 | 0.073 | 0.8
O=C1CCC(N2C(=O)c3cccc(NCc4cnc(-c5ccc(O[C@H]6CCOC6)cc5)o4)c3C2=O)C(=O)N1 (some centres unmarked) [Example 48] | < 1000 | < 0.015 | < 0.06 |  |  |  | 

SMILES | IC50 (MV-4-11 cells; [1]) [nM] | IC50 (MM.1S cells; [2]) [µM] | IC50 (Mino cells; [3]) [µM] | IC50 (MV-4-11 cells; [4]) [nM] | IC50 (MV-4-11 cells; [5]) [nM] | IC50 (MM.1S cells; [6]) [µM] | IC50 (Mino cells; [7]) [µM]
O=C1CCC(N2C(=O)c3cccc(NCc4cnc(-c5ccc(OCCO)cc5)o4)c3C2=O)C(=O)N1 (centres unmarked) [Example 50] | < 1000 | < 0.015 | < 0.06 |  |  |  | 
COCCOc1ccc(-c2ncc(CNc3cccc4c3C(=O)N(C3CCC(=O)NC3=O)C4=O)s2)cc1 (centres unmarked) [Example 104] | < 1000 | 0.015 to 0.03 | > 0.12 |  |  |  | 
Nc1cccc2c1CN(C1CCC(=O)NC1=O)C2=O (centres unmarked) [Lenalidomide, reference compound] | > 20000 | 0.03 to 0.15 | > 0.12 | > 20000 |  |  | 
O=C1CCC(N2C(=O)c3cccc(NCc4ncc(-c5ccc(F)cc5)s4)c3C2=O)C(=O)N1 (centres unmarked) [Example 34] | < 1000 | 0.03 to 0.15 | > 0.12 |  |  |  | 
N#Cc1ccc(CN2CCC(c3ncc(CNc4cccc5c4C(=O)N(C4CCC(=O)NC4=O)C5=O)o3)CC2)c(F)c1 (centres unmarked) [Example 13] | 1000 to 20000 | 0.03 to 0.15 | > 0.12 |  |  |  | 
CC(C)(C)C(=O)N1CCC(c2ncc(CNc3cccc4c3CN(C3CCC(=O)NC3=O)C4=O)o2)CC1 (centres unmarked) [Example Ctrl-1, 3-(1-oxo-4-(((2-(1-pivaloylpiperidin-4-yl)oxazol-5-yl)methyl)amino)isoindolin-2-yl)piperidine-2,6-dione, reference compound] |  |  |  |  | 14400 | 0.419 | > 20
O=C1CCC(N2C(=O)c3cccc(NCc4cnc(C5CCN(C(=O)CC67CC8CC(CC(C8)C6)C7)CC5)o4)c3C2=O)C(=O)N1 (centres unmarked) [Example 11] | < 1000 | < 0.015 | < 0.06 |  |  |  | 
O=C1CCC(N2C(=O)c3cccc(OCc4cn(-c5ccc(OC(F)(F)F)cc5)nn4)c3C2=O)C(=O)N1 (centres unmarked) [Prior Art Disclosed Compound-3, reference compound] |  |  |  |  | > 20000 | > 20 | 0.68
O=C1CCC(N2C(=O)c3cccc(NCc4nnc(-c5ccccc5)s4)c3C2=O)C(=O)N1 (centres unmarked) [Example 99, 2-(2,6-Dioxopiperidine-3-yl)-4-(((5-Phenyl-1,3,4-thiadiazol-2-yl)methyl)amino)isoindoline-1,3-dione] | 1000 to 20000 | 0.03 to 0.15 | > 0.12 |  |  |  | 
O=C1CCC(N2C(=O)c3cccc(NCc4cnc([C@H]5CC[C@H](Cc6ccc(F)cc6)CC5)o4)c3C2=O)C(=O)N1 (stereo partly drawn) [Example 106, 2-(2,6-Dioxopiperidine-3-yl)-4-(((2-((1R,4R)-4-(4-Fluorobenzyl)cyclohexyl)oxazol-5-yl)methyl)amino)isoindoline-1,3-dione] | < 1000 | 0.03 to 0.15 | > 0.12 |  |  |  | 
N#Cc1ccc(-c2ncc(CNc3cccc4c3C(=O)N(C3CCC(=O)NC3=O)C4=O)s2)cc1 (centres unmarked) [Example 33, 4-(5-(((2-(2,6-dioxopiperidin-3-yl)-1,3-dioxoisoindolin-4-yl)amino)methyl)thiazol-2-yl)benzonitrile] | < 1000 | < 0.015 | 0.06 to 0.12 |  |  |  | 
O=C1CCC(N2C(=O)c3cccc(NCc4cnc(-c5ccc(Cl)cc5)s4)c3C2=O)C(=O)N1 (centres unmarked) [Example 32] | < 1000 | < 0.015 | 0.06 to 0.12 |  |  |  | 
O=C1CCC(N2C(=O)c3cccc(NCc4cnc(-c5cccc(C(F)(F)F)c5)o4)c3C2=O)C(=O)N1 (centres unmarked) [Example 58] | < 1000 | 0.015 to 0.03 | > 0.12 |  |  |  | 
Cc1ccc(-c2cnc(CNc3cccc4c3C(=O)N(C3CCC(=O)NC3=O)C4=O)o2)cc1 (centres unmarked) [Example 24] | < 1000 | 0.015 to 0.03 | > 0.12 |  |  |  | 
O=C1CCC(N2C(=O)c3cccc(NCc4cnc(CN5CC(N6CCOCC6)C5)o4)c3C2=O)C(=O)N1 (centres unmarked) [Example 80] | < 1000 | > 0.15 | > 0.12 |  |  |  | 
N#Cc1cccc(-c2ncc(CNc3cccc4c3C(=O)N(C3CCC(=O)NC3=O)C4=O)s2)c1 (centres unmarked) [Example 30] | 1000 to 20000 | 0.015 to 0.03 | > 0.12 |  |  |  | 
